Experimental data from patent publication US5506213A, “Adminstration of 2'-halo-2'-deoxy adenosine to treat inflammatory bowel disease” (priority 1994, dated 1996).
Like-named read-outs stand apart in the source and are kept apart here.

What was measured:
normal human monocytes = experiment: In vitro cytotoxicity toward human monocytes (MTT reduction assay); assay type: cell-based; details: for IC50: Homo sapiens, Monocyte
Source text: The percentage of viable cells remaining after treatment (ordinate) is plotted against the concentration of CdA utilized (abscissa), on a linear scale.
Peripheral blood monocytes and lymphocytes were isolated by well known methods from normal subjects. […] The human fibroblast cell line GMO1380 was obtained originally from the NIGMS Human Genetic Mutant Cell Repository, Camden, N.J., and cultured under the same conditions as above. That cell line was from a normal fetal lung.
Meth., 65: 55-63. After culturing for up to five days, 3-(4,5-dimethylthiazol-2-yl)-2,5-diphenyl tetrazolium bromide (MTT) at 0.2 mg (40 μl) was admixed with each well and the incubation was continued for another 4 hours. The plates were then centrifuged at 1000×g for 10 minutes, and supernatants were carefully aspirated with a finely drawn pipette.
Acidified isopropanol (100 μl; using 0.04N HCl) was added to each well.
Viable cell numbers were determined using a Dynatech microplate spectrophotometer, measuring absorbance at a wavelength of 570 nanometers (nm), using a reference wavelength of 630 nm.

rheumatoid arthritis = experiment: CdA 5-day continuous infusion in rheumatoid arthritis patients: cell counts and joint parameters; assay type: in vivo, human
Method: FIG. 7 is a graph showing the results of a study of the cytotoxicity of CdA toward monocytes and lymphocytes of a rheumatoid arthritis patient receiving CdA therapy. A continuous intravenous infusion of CdA (0.1 mg/ml in isotonic saline) was administered at a dosage of 0.1 mg/kg per day for a five-day period. Monocyte numbers are shown as open squares and lymphocyte numbers are shown as closed diamonds. Three cycles of infusions of CdA were given, and are illustrated as open rectangles for the five-day time periods of each infusion at a position in the graph above the days in the treatment regimen on which infusions were given.
A study similar to that described in Example 1 was carried out with three patients having rheumatoid arthritis. In each instance, the patient had been unsuccessfully treated with methotrexate, a gold salt or penicillamine, which treatment had been stopped three weeks prior to the first treatment with CdA. […]
A specially trained nurse examined the number of swollen and painful joints in each of the patients prior to the start of each treatment. The values obtained are as listed for each patient.
PIP joint measurements refer to the total arthrocircameter measurements, in mm, of each proximal interphalangeal (PIP) joint, for each patient. Values are shown for each of the three patients.
Each patient was asked to rank his or her performance of nine function parameters on a 0 to 10 scale, 10 being the highest. These function parameters were: turning in bed, rising from a chair, buttoning buttons, combing hair, walking, turning knobs, climbing stairs, getting in and out of an automobile, and general well being. The total score on these nine parameters for each patient is listed as the performance index.

multiple sclerosis = experiment: Treatment of chronic multiple sclerosis patients with CdA; assay type: in vivo, human
Method: A study of four patients with chronic multiple sclerosis was undertaken. Each patient was first examined for normal hepatic, renal, and bone marrow functioning to establish baseline values. Each of the patients was then treated with CdA dissolved in sterile preservative-free isotonic saline. The CdA was administered intravenously at a dosage of 0.1 mg/kg each day for a total of seven days. Each patient received six courses of intravenous therapy, once monthly for a total of six months. Patients were examined on a daily basis while hospitalized. During that time, daily blood counts and twice weekly blood chemistries were performed on each patient. CdA levels were also measured in blood and spinal fluid.
The neurologic function of each of these patients was measured using the expanded Krutzke disability status scale (EDSS), and the neurologic rating scale (NRS).

[1] = system: DHL9, Increased ribonucleotide reduction; experiment: Direct comparative cytotoxicity assay (Table II), DHL9 increased ribonucleotide reduction; assay type: cell-based, human; details: Homo sapiens, 120 h, read-out: ID50: concentration that produced 50 percent reduction in all numbers after five days
Source text: The two compounds, CdA and CAFdA, were also compared for in vitro activity against another group of human cell lines in a direct comparative assay.
^1 Concentration that produced 50 percent reduction in all numbers
^2 CEM cells are T lymphoblasts; DHL9 cells are lymphoblasts.

[2] = Pt. # 1, CdA treatment course 1
[3] = Pt. # 1, CdA treatment course 2
[4] = Pt. # 1, CdA treatment course 3
[5] = Pt. # 1, prior to start of CdA treatment course 1
[6] = Pt. # 1, prior to start of CdA treatment course 2
[7] = Pt. # 1, prior to start of CdA treatment course 3
[8] = Pt. # 2, CdA treatment course 1
[9] = Pt. # 2, CdA treatment course 2
[10] = Pt. # 2, CdA treatment course 3
[11] = Pt. # 2, prior to start of CdA treatment course 1
[12] = Pt. # 2, prior to start of CdA treatment course 2
[13] = Pt. # 2, prior to start of CdA treatment course 3
[14] = Pt. # 2, prior to start of CdA treatment course 4
[15] = Pt. # 2, prior to start of CdA treatment course 5
[16] = Pt. # 2, prior to start of CdA treatment course 6
[17] = Pt. # 3, CdA treatment course 1
[18] = Pt. # 3, CdA treatment course 2
[19] = Pt. # 3, CdA treatment course 3
[20] = Pt. # 3, prior to start of CdA treatment course 1
[21] = Pt. # 3, prior to start of CdA treatment course 2
[22] = Pt. # 3, prior to start of CdA treatment course 3
[23] = Pt. # 3, prior to start of CdA treatment course 4

## Nc1nc(Cl)nc2c1ncn2[C@H]1C[C@H](O)[C@@H](CO)O1 [CdA, 2-chloro-9,1'-beta-D-2'-deoxyribosyladenine]
Normal human monocytes; 120 h, five days exposure (FIG. 2), read-out: CdA concentration at which 50 percent of the cultured monocytes were killed
  IC50: 20 nM
Normal human monocytes; another study, freshly isolated monocytes, read-out: CdA concentration at which 50 percent of freshly isolated monocytes were killed
  IC50: 22 nM
Normal human monocytes; deoxycytidine 100 μM
  monocyte sensitivity to CdA in the presence of deoxycytidine: substantially reduced
Rheumatoid arthritis; [2]
  PIP Joint Measurement (Totals, in mm): 583 mm
  Performance Index (total score on nine function parameters, each 0 to 10): 70
Rheumatoid arthritis; [3]
  PIP Joint Measurement (Totals, in mm): 612 mm
  Performance Index (total score on nine function parameters, each 0 to 10): 33
Rheumatoid arthritis; [4]
  PIP Joint Measurement (Totals, in mm): 560 mm
  Performance Index (total score on nine function parameters, each 0 to 10): 27
Rheumatoid arthritis; [5]
  Painful Joints: 73/38
  Swollen Joints: 51/47
Rheumatoid arthritis; [6]
  Painful Joints: 39
  Swollen Joints: 37
Rheumatoid arthritis; [7]
  Painful Joints: 23
  Swollen Joints: 25
Rheumatoid arthritis; [8]
  PIP Joint Measurement (Totals, in mm): 527 mm
  Performance Index (total score on nine function parameters, each 0 to 10): 46
Rheumatoid arthritis; [9]
  PIP Joint Measurement (Totals, in mm): 526 mm
  Performance Index (total score on nine function parameters, each 0 to 10): 28
Rheumatoid arthritis; [10]
  PIP Joint Measurement (Totals, in mm): 531 mm
  Performance Index (total score on nine function parameters, each 0 to 10): 22
Rheumatoid arthritis; Pt. # 2, CdA treatment course 4
  PIP Joint Measurement (Totals, in mm): 498 mm
Rheumatoid arthritis; Pt. # 2, CdA treatment course 5
  PIP Joint Measurement (Totals, in mm): 485 mm
Rheumatoid arthritis; Pt. # 2, CdA treatment course 6
  PIP Joint Measurement (Totals, in mm): 506 mm
Rheumatoid arthritis; [11]
  Painful Joints: 32
  Swollen Joints: 9
Rheumatoid arthritis; [12]
  Painful Joints: 34
  Swollen Joints: 27
Rheumatoid arthritis; [13]
  Painful Joints: 28
  Swollen Joints: 25
Rheumatoid arthritis; [14]
  Painful Joints: 36
  Swollen Joints: 22
Rheumatoid arthritis; [15]
  Painful Joints: 27
  Swollen Joints: 23
Rheumatoid arthritis; [16]
  Painful Joints: 26
  Swollen Joints: 14
Rheumatoid arthritis; [17]
  PIP Joint Measurement (Totals, in mm): 560 mm
  Performance Index (total score on nine function parameters, each 0 to 10): 30
Rheumatoid arthritis; [18]
  PIP Joint Measurement (Totals, in mm): 548 mm
  Performance Index (total score on nine function parameters, each 0 to 10): 36
Rheumatoid arthritis; [19]
  PIP Joint Measurement (Totals, in mm): 549 mm
  Performance Index (total score on nine function parameters, each 0 to 10): 32
Rheumatoid arthritis; Pt. # 3, CdA treatment course 4
  PIP Joint Measurement (Totals, in mm): 602 mm
Rheumatoid arthritis; [20]
  Painful Joints: 36
  Swollen Joints: 16
Rheumatoid arthritis; [21]
  Painful Joints: 40
  Swollen Joints: 17
Rheumatoid arthritis; [22]
  Painful Joints: 54
  Swollen Joints: 14
Rheumatoid arthritis; [23]
  Painful Joints: 59
  Swollen Joints: 11
Rheumatoid arthritis; after infusion of CdA was stopped for each cycle
  time for monocyte numbers to return to approximately pre-treatment number: within about ten days
Rheumatoid arthritis; all three patients, reported by personal physicians
  arthritic disease states at follow-up: had improved
Rheumatoid arthritis; follow-up, two patients, lasted about three years and over one year post treatment
  total white cell count drop from pretreatment values: about 50%
Rheumatoid arthritis; one patient, after CdA treatment
  adverse event leading to drop-out: overwhelming fatigue phenomenon
Rheumatoid arthritis; patient 1, during each CdA administration cycle, 0.1 mg/kg per day, five days
  monocyte number: dropped to substantially zero
Rheumatoid arthritis; patient 1, throughout the one hundred days of the study
  neutrophil and platelet numbers: substantially constant
Rheumatoid arthritis; three rheumatoid arthritis patients
  patients with a reduction in the number of painful or swollen joints: two of the three patients
Multiple sclerosis; all cases
  cerebrospinal fluid IgG oligoclonal bonds: complete disappearance
Multiple sclerosis; all four patients
  platelet counts: remained within the normal range
Multiple sclerosis; all patients, lasting six to eight months after cessation of treatment
  macrocytosis: modest macrocytosis
Multiple sclerosis; another patient, after two treatments
  monocyte level: substantially absent
Multiple sclerosis; during treatment with CdA
  neurologic function, EDSS and NRS scales: evidence of improvement in all four patients
Multiple sclerosis; four patients, 0.1 mg/kg each day i.v. for seven days, six monthly courses
  toxic side effects: no evidence of any significant toxic side effects
Multiple sclerosis; human, in vivo
  cerebrospinal fluid lymphocyte counts: marked drop
  total CFS IgG: no significant change
Multiple sclerosis; one patient, after the first treatment
  monocyte drop: 40%
Multiple sclerosis; same patient, after each of the remaining five treatments
  monocyte level: substantially absent
[1]
  IC50: 4000 nM
